According to article PMC12523804, “Evaluation of molecular mechanisms of (Z)-3-(pentadec-10′-enyl)-catechol (litreol) and synthetic derivatives as inhibitors of human leukotriene biosynthesis” (Redox Biology, 2025):

System: NF-κB
Experiment: Western blot of NF-κB
Type: cell-based
Conditions: LPS stimulation
Protocol: Human polymorphonuclear leukocytes (PMNLs; 50 × 10^6), isolated from whole blood, were resuspended in 1 mL of cold PGC buffer. Briefly, neutrophils were pre-incubated for 15 min at 37 °C with test compounds (1 μM). […] The samples were subsequent centrifuged (1200g, 10 min) and the pellets were resuspended in 100 μL od SDS-PAGE loading buffer (2x) (Tris 1 M pH 8, EDTA 0.2 M, 10 % SDS, 10 % mercaptoethanol). Correct protein loading on the gels and transfer of proteins to the nitrocellulose membrane were confirmed by Ponceau staining. Membranes with transferred proteins were incubated overnight with primary antibodies in 1x Tris Buffered Saline (TBS) with 1 % Casein (Biorad- #1610782). Membranes were then washed and incubated with horseradish peroxidase-conjugated secondary antibodies for 1 h at room temperature. Blots were developed using enhanced chemiluminescence detection reagents ECL (Immobilion ECL Ultra Western HRP Substrate - Cat# WBULS0500 Millipore) and acquired using ChemiDoc Imaging System (BioRad). Antibody recognizing phosphorylated p38-MAPkinase, pERK, ERK, NfKB were from Cell Signalling Technology (Boston, MA) and used at 1:1000 dilution. Secondary antibodies were purchased from Biorad (170–6515; 170–6516) and used at 1:2000 diluition.

`CCCC/C=C\CCCCCCCCCc1cccc(O)c1O` [CI, (Z)-3-(pentadec-10′-enyl)-catechol] was tested, and the “NF-κB expression (Western blot)” value was “most pronounced effect”.
